In PMC4712357 (Molecular informatics, 2015):

Assay: Vesicle rupture assay
Assay type: biochemical
Settings: POPC LUVs, relative to Triton X-100 (=100%)

Sequence: EWGQGLTSFWHL [compound 2]
- rupturing of POPC vesicles: 50–75%
